{
  "source": "ChEMBL document CHEMBL1142846",
  "about": "“Synthesis and cytotoxic activity of platinum complex immobilized by branched polyethylene glycol” (Bioorg Med Chem Lett, 2005)",
  "experiment": "Inhibition concentration against C6 […] cells by the 3-(4,5-dimethylthiazol-2-yl)-2,5-diphenyltetrazoliumbromide (MTT) method",
  "assay_type": "functional, cell-based",
  "data": [
    {"sequence": "CISPLATIN", "values": [
      {"measurement": "IC50", "value": 5.27, "unit": "µM"}
    ]}
  ]
}
